The subject of one series is S1PR3 receptor. Description: Silencing of the expression of the S1PR3 receptor by siRNA in C2C12 myotubes. The format is cell-based. The note with it: incubation with siRNA specific for mouse S1PR3. On the procedure: C2C12 murine skeletal myoblasts obtained from the American Type Culture Collection (ATCC, Manassas, VA, USA) were cultured in Dulbecco's Modified Eagle's Medium (DMEM) (Sigma, Milan, Italy) with L-glutamine 1%, penicillin/streptomycin 1% (Sigma, Milan, Italy) and Foetal Bovine Serum 10% (FBS) (Sigma, Milan, Italy). For experiments with the myotubes, myoblasts were seeded in 6-wells plates at a concentration of 0.2×10^6 cells/ml. When the cells reached 90-100% confluence (72 hours after seeding), the medium was replaced with the differentiation medium (DM), consisting of DMEM containing antibiotics, glutamine and horse serum (HS) 2% (Sigma, Milan, Italy). The medium was changed every 24-48 hours. The complete cell differentiation was observed after 4-6 days of incubation with HS 2%. The C2C12 skeletal myotubes were incubated for 24-48 hours with the indicated compounds: Sphingosine 1-phosphate (S1P) 2 μM, or different concentration of CYM5520, VPC23019 and/or W146 (in the concentration range between 0.25 and 2 μM). CYM5478, TY52156 and siRNA specific for S1PR3 (NCBI ref NM_010101.4, sequence 5′-CGGGGUCCUCUGCAAGUGA-3 ′1118-1139 SEQ ID NO: 1, same size random oligonucleotides were used as negative control SCR-siRNA) were used in some of the experiments. […]

Series [1] concerns Atrogin-1/MAFbx. As to the kind of experiment: Western Blotting analysis of Atrogin-1/MAFbx protein levels in C2C12 myotubes (atrophy induced by dexamethasone or TNFα). The series is classed as cell-based, murine. The note with it: for effect on Dexa-induced expression of Atrogin-1/MAFbx (protein) / expression of Atrogin-1/MAFbx (protein): C2C12 myotubes; for effect on Dexa-induced expression of Atrogin-1/MAFbx (protein): modulator(s) added 1 hour before Dexa 100 μM for 48 hours, 2 μM CYM5520, 1 μM VPC23019, 2 μM W146, 2 μM FTY720; for expression of Atrogin-1/MAFbx (protein): modulator(s) in absence of Dexa, 2 μM CYM5520, 1 μM VPC23019, 2 μM W146. Here is the method:
(§1) C2C12 murine skeletal myoblasts obtained from the American Type Culture Collection (ATCC, Manassas, VA, USA) were cultured in Dulbecco's Modified Eagle's Medium (DMEM) (Sigma, Milan, Italy) with L-glutamine 1%, penicillin/streptomycin 1% (Sigma, Milan, Italy) and Foetal Bovine Serum 10% (FBS) (Sigma, Milan, Italy). For experiments with the myotubes, myoblasts were seeded in 6-wells plates at a concentration of 0.2×10^6 cells/ml. When the cells reached 90-100% confluence (72 hours after seeding), the medium was replaced with the differentiation medium (DM), consisting of DMEM containing antibiotics, glutamine and horse serum (HS) 2% (Sigma, Milan, Italy). The medium was changed every 24-48 hours. The complete cell differentiation was observed after 4-6 days of incubation with HS 2%. The C2C12 skeletal myotubes were incubated for 24-48 hours with the indicated compounds: Sphingosine 1-phosphate (S1P) 2 μM, or different concentration of CYM5520, VPC23019 and/or W146 (in the concentration range between 0.25 and 2 μM). CYM5478, TY52156 and siRNA specific for S1PR3 (NCBI ref NM_010101.4, sequence 5′-[…]-3 ′1118-1139 SEQ ID NO: 1, same size random oligonucleotides were used as negative control SCR-siRNA) were used in some of the experiments. The agonists/antagonists or S1PR3-siRNA or SCR-siRNA were added to the culture medium for 1 hour prior to treatment of the myotubes with dexamethasone (Dexa) 100 μM for 48 hours.
The Western Blotting analysis was carried out for determining the protein levels of Atrogin-1/MAFbx in C2C12 myotubes. The cells were lysed at 4° C. with RIPA buffer containing TrisHCl 50 mM, pH 7.5, NaCl 120 mM, EDTA 1 mM, EGTA 6 mM, Na4P2O7 15 mM, NaF 20 mM, 1% of cocktail Nonidet and protease inhibitor (1.04 mM AEBSF, 0.08 mM of aprotinin, leupeptin 0.02 mM, bestatin 0.04 mM, pepstatin A […], E-64 […] (Sigma, St. Louis, MO, USA). The lysates were centrifuged at 600× g for 6 min at 4° C., and the proteins concentration was measured by using the Bradford assay (Bio-Rad, Hercules, CA). Aliquots containing 40 μg of proteins were diluted in loading buffer 2× (10% SDS, 50% glycerol, 0.25% bromophenol blue and 0.25 M Tris-HCl, pH 6.8) and boiled at 90° C. for 10 minutes to denature proteins. The samples were subjected to SDS-polyacrylamide 10-12% (SDS-PAGE) gel electrophoresis and to Western blotting on Amersham Hybond p 0.45 PVDF membrane (GE Healthcare, Buckinghamshire, UK). […] After blocking, the membranes were washed in PBST and then incubated overnight with a 1:1000 dilution of the primary antibody comprising rabbit polyclonal antibody with Atrogin-1/MAFbx. After sufficient washings with PBST, the membranes were incubated for 1 hour at room temperature with secondary antibodies conjugated with goat anti-rabbit or goat anti-mouse horseradish peroxidase (Santa Cruz, Texas, USA) at dilution 1:10.000/1:5.000. Following three washings with PBST, the bands corresponding to the immunoreactive proteins were seen by using reagents for the detection of the Western blotting ECL (GE Healthcare, Buckinghamshire, UK); and finally, the membranes were exposed to a high performance chemiluminescence film (GE Healthcare, Buckinghamshire, UK). The identity of the bands on the Western Blot membranes was confirmed by comparing them with a high-precision marker having a known molecular weight (BioRad, Hercules, CA). Densitometric analysis of the bands was performed by using NIH IMAGE J (ImageJ software, Bethesda, MD, USA) and Quantity-One (imaging and analysis software from Bio-Rad Laboratories, Hercules, CA) and the intensity of the band was indicated as a relative percentage (mean and standard deviation from the mean), obtained by calculating the ratio of the specific protein with respect to the β-actin intensity and normalizing it to the control, set to 1.
To test the role of exogenous S1Ps, the terminally differentiated myotubes were treated with the bioactive lipid.
For orientation: Immunoblotting shows a protein as a band on a membrane.

The test system of series [2] is C2C12 myotubes. Description: Phase contrast microscopy of cellular morphology of C2C12 myotubes (diameter, number of myonuclei). The format is cell-based, murine. The following applies: for effect on atrophic morphology (myotube diameter, number of myonuclei): modulator(s) before Dexa 100 μM for 48 hours. On the procedure:
as §1
The images shown are representative of n. 5-6 observation frames for each treatment.
The C2C12 myoblasts were let to grow on a coverslip and when confluent they were moved on a differentiated medium for 4 days.
The C2C12 myotubes were grown on a coverslip and, when confluent, were moved onto a medium for the differentiation for 4 days. The cells were treated with the above reported combination of the three S1PR modulators before being incubated with Dexa for 48 hours. Then, the cells were fixed and observed with microscope.

Series [3] concerns Atrogin-1/MAFbx. The note with it: C2C12 myotubes, cited from earlier work.
Series [4] concerns C2C12 myotubes. The following applies: cited from earlier work.
The mark [5] stands for this setting: composition of the invention with CYM5520 replaced by the named compound (2 μM), in the presence of Dexa.

For the compound “S1PR3-siRNA: double-stranded RNA of 21 nucleotides, SEQ ID NO:1, silencing the expression of the S1PR3 receptor (CGGGGUCCUCUGCAAGUGA; combined with other compounds, further chemistry not given here) [Combination S1PR3-siRNA]”, the entries for the “reduction of expression of the S1PR3 protein” value with S1PR3 receptor and in the series with S1PR3 receptor (listed as SEQ ID NO:1) were 40% and “about 40%”, respectively.
Turning to `CCCCCCCCc1ccc(CCC(N)(CO)CO)cc1` [FTY720], in the series on Atrogin-1/MAFbx [1], the “effect on Dexa-induced expression of Atrogin-1/MAFbx (protein)” value (from here on “effect on Dexa-induced expression”) is on record as “not affected”. Further, in the series on C2C12 myotubes [2] (C2C12 myotubes, FIG. 3C), the “formation of autophagic vesicles (morphological analysis)” value is on record as “promote the formation of small autophagic vesicles”.
Turning to `CCCCCCCCc1cccc(NC(=O)C(N)COP(=O)(O)O)c1` (stereo not shown) [VPC23019, [2-amino-2-(3-octyl-phenylcarbamoyl)-ethyl] ester of phosphoric acid], in the series on Atrogin-1/MAFbx [1], the “effect on Dexa-induced expression” value is listed as “did not counteract the effect of Dexa” and the “expression of Atrogin-1/MAFbx (protein)” value is recorded as “did not induce”. Besides, the “effect on atrophic morphology (myotube diameter, number of myonuclei)” value (from here on “effect on atrophic morphology”) in the series with C2C12 myotubes [2] (C2C12 myotubes) is “not significantly reduced”.
Regarding `CCCCCCCCCCCCC/C=C/[C@@H](O)[C@@H](N)COP(=O)(O)O` [Combination S1P, Sphingosine 1-phosphate], the Atrogin-1/MAFbx level entry with Atrogin-1/MAFbx [3] (S1P (1 μM) before Dexa 100 μM for 48 hours, FIG. 1 state of the art) is given as “reduce the Atrogin-1/MAFbx level, restoring the basal levels”. In addition, in the series with Atrogin-1/MAFbx [3] (S1P (1 μM) without Dexa, FIG. 1A state of the art), the “expression of Atrogin-1/MAFbx” value is “significantly increase”. The “cell morphology and number of nuclei” value in the series with C2C12 myotubes [4] (Dexa-treated cells in the presence of S1P, state of the art) is “no significant changes”. Further, the “morphological parameters of the myotubes (diameter and number of myonuclei)” value with C2C12 myotubes [4] (S1P without Dexa, FIG. 1B, 1C state of the art) is “slightly change”.
For the compound `CCCCCCc1cccc(NC(=O)[C@H](N)CCP(=O)(O)O)c1` [Combination W146], in the series on Atrogin-1/MAFbx [1], the “effect on Dexa-induced expression” value is given as “did not counteract the effect of Dexa” and the “expression of Atrogin-1/MAFbx (protein)” value is on record as “did not induce”. The “effect on atrophic morphology” value in the series on C2C12 myotubes [2] (C2C12 myotubes) is reported as “not significantly reduced”.
As to `Cc1cc(C(=O)Cn2cc(C(F)(F)F)ccc2=O)c(C)n1Cc1ccccc1` [CYM5478], the “effect on expression of Atrogin-1/MAFbx” value with Atrogin-1/MAFbx [1] (setting [5]) is given as “effect comparable with that obtained with the combination of the invention”. The “effect on cellular morphology” value in the series with C2C12 myotubes [2] (setting [5]) is “effect comparable with that obtained with the combination of the invention”.
In the case of `Cc1cc(C(=O)Cn2cc(C#N)ccc2=O)c(C)n1Cc1ccccc1` [CYM5520], in the series with Atrogin-1/MAFbx [1], the “effect on Dexa-induced expression” value is given as “only slightly counteracted the GC effect” and the “expression of Atrogin-1/MAFbx (protein)” value is on record as “no increase was observed”. Further, the “effect on atrophic morphology” value in the series on C2C12 myotubes [2] (C2C12 myotubes) is “not significantly reduced”.
